Article PMC11915801, “Evolutionary trajectory of bacterial resistance to antibiotics and antimicrobial peptides in Escherichia coli” (mSystems, 2025)
≈ marks a conversion by molar mass, not a printed value. Where two headings read alike, the source gives them in different places. Where a SMILES comes first, the peptide text is derived from it.

Tests used:
[1] = system: chloramphenicol-resistant strains (CHL80); assay: Disk diffusion experiment, chloramphenicol-resistant strains; format: cell-based, Escherichia coli; conditions: drug 2,048 µg/mL, LB agar, 37°C 24 h
Description: (§1) Fifty microliters of bacterial cultures was spread evenly onto LB agar. A prepared circular sterile filter paper was pasted on the center of the petri dish, and the corresponding drugs with a concentration of 2,048 µg/mL were dropped on the center of the circular filter paper. The petri dishes were placed at 37°C for 24 h, and the diameters of the sterile growth circles were measured.

[2] = system: G. mellonella larvae infected with chloramphenicol-resistant strains; assay: G. mellonella infection protection model, chloramphenicol-resistant strain; format: in vivo, Galleria mellonella; conditions: monotreatment 30 mg/kg at 1 h post-infection, 5 days, n = 8 per group
Description: (§2) The bacterial culture was uniformly diluted with saline to an OD600 of 0.35. G. mellonella larvae (n = 8 per group) were randomly divided, and sterile saline was used as the blank control. In the virulence assessment, 10 µL of bacterial solution was inoculated into each larva using a Hamilton syringe. The survival of larvae was observed and recorded daily for 7 days.
(§3) For the larval infection protection model, larvae were infected with wild-type and antibiotic-resistant strains and treated with a dose of 30 mg/kg of drugs at the left foot of the last gastropod at 1 h post-infection, and the survival was monitored for 5 days.

[3] = system: G. mellonella larvae infected by the original MG1655; assay: G. mellonella infection protection model, original MG1655; format: in vivo, Galleria mellonella; conditions: monotreatment 30 mg/kg at 1 h post-infection, 5 days, n = 8 per group
Description: as §2, §3

E. coli K-12 MG1655 = assay: microbe, parasite or virus in culture; format: cell-based, Escherichia coli; conditions: Escherichia coli
Description: (§4) The broth microdilution method was used to measure the MIC values of antibiotics and peptides according to the Clinical and Laboratory Standards Institute guidelines. The MIC value is defined as the lowest drug concentration without visible bacteria.
Eight antibiotics and ten AMPs at the sub-inhibitory concentration were prepared. A 300-µL system, including 260 µL of MH broth, 30 µL of prepared drug, and 10 µL of bacterial culture, was used for resistance passages. After 12 h of incubation at 37℃ and 200 rpm, 10 µL of the above bacterial culture was added into the new sterile drug-containing broth. MIC values of bacterial culture were determined. The drug concentration was adjusted according to the MIC value change until the end of the 120 passages.

AMP120 (evolved MG1655) = assay: microbe, parasite or virus in culture; format: cell-based, Escherichia coli; conditions: Escherichia coli, MG1655; broth microdilution; ampicillin-evolved strain
From the text: (§5) To ensure the stable resistance evolution and inheritance of MG1655 under different drugs, we randomly selected three monoclonals from the evolved strains. The final antibiotic-evolved strains were designated as AMP120, AZI120, CHL80, CIP120, DOX120, KAN80, NIT70, and TMP30, while the final AMP-evolved strains were named COL120, Ind120, Omi120, Pex120, PGLA120, Pleu120, R8120, SAAP120, LI120, and SLAP120.
as §4

AZI120 (evolved MG1655) = assay: microbe, parasite or virus in culture; format: cell-based, Escherichia coli; conditions: Escherichia coli, MG1655; broth microdilution; azithromycin-evolved strain
From the text: as §5, §4

CHL80 (evolved MG1655) = assay: microbe, parasite or virus in culture; format: cell-based, Escherichia coli; conditions: Escherichia coli, MG1655; broth microdilution; chloramphenicol-evolved strain
From the text: as §5, §4

CIP120 (evolved MG1655) = assay: microbe, parasite or virus in culture; format: cell-based, Escherichia coli; conditions: Escherichia coli; broth microdilution; ciprofloxacin-evolved strain
From the text: as §5, §4

COL120 (evolved MG1655) = assay: microbe, parasite or virus in culture; format: cell-based, Escherichia coli; conditions: Escherichia coli, MG1655; broth microdilution; colistin-evolved strain
From the text: as §5, §4

DOX120 (evolved MG1655) = assay: microbe, parasite or virus in culture; format: cell-based, Escherichia coli; conditions: Escherichia coli, MG1655; broth microdilution; doxycycline-evolved strain
From the text: as §5, §4

KAN80 (evolved MG1655) = assay: microbe, parasite or virus in culture; format: cell-based, Escherichia coli; conditions: Escherichia coli, MG1655; broth microdilution; kanamycin-evolved strain
From the text: as §5, §4

NIT70 (evolved MG1655) = assay: microbe, parasite or virus in culture; format: cell-based, Escherichia coli; conditions: Escherichia coli, MG1655; broth microdilution; nitrofurantoin-evolved strain
From the text: as §5, §4

TMP30 (evolved MG1655) = assay: microbe, parasite or virus in culture; format: cell-based, Escherichia coli; conditions: for MIC: Escherichia coli, MG1655, broth microdilution, trimethoprim-evolved strain
From the text: as §5, §4

MG1655 WT = assay: microbe, parasite or virus in culture; format: cell-based; conditions: Escherichia coli, MG1655, read-out: MIC values of MG1655 with gene silencing, WT
From the text: as §4
(§6) The engineered CRISPR/CRISPR-associated protein 9 (Cas9) system was used to repress the dnaA, deoB, icd, and thyA genes. Briefly, spacer 1 (5-[…]-3), spacer 2 (5-[…]-3), spacer 3 (5-[…]-3), and spacer 4 (5-[…]-3) were synthesized, and then, the construction of the targeting plasmid psgRNA was performed in a total volume of 25 µL. Subsequently, 1.5 µL of each newly constructed psgRNA and dCas9 was simultaneously electroporated into the competent cells of MG1655. MG1655 containing unmodified psgRNA and dCas9 was used as a control. Anhydrotetracycline at a final concentration of 0.5 µg/mL was used to induce gene repression. RT-qPCR was used to verify the expression of the genes.

MG1655 dnaA-i = assay: MIC, CRISPRi dnaA-repressed MG1655; format: cell-based; conditions: Escherichia coli, broth microdilution, CRISPRi repression of dnaA, anhydrotetracycline 0.5 µg/mL, read-out: MIC values of MG1655 with gene silencing, dnaA-i
From the text: as §4, §6

MG1655 deoB-i = assay: MIC, CRISPRi deoB-repressed MG1655; format: cell-based; conditions: Escherichia coli, broth microdilution, CRISPRi repression of deoB, read-out: MIC values of MG1655 with gene silencing, deoB-i
From the text: as §4, §6

MG1655 icd-i = assay: MIC, CRISPRi icd-repressed MG1655; format: cell-based; conditions: Escherichia coli, broth microdilution, CRISPRi repression of icd, read-out: MIC values of MG1655 with gene silencing, icd-i
From the text: as §4, §6

MG1655 thyA-i = assay: MIC, CRISPRi thyA-repressed MG1655; format: cell-based, Escherichia coli; conditions: for MIC: Escherichia coli, MG1655, broth microdilution, CRISPRi repression of thyA, read-out: MIC values of MG1655 with gene silencing, thyA-i
From the text: as §4, §6

[4] = system: chloramphenicol-resistant bacteria (CHL80); conditions: 15-min exposure, tenfold the MIC of MG1655, 1 × 10^6 CFU log-phase, CFU counting
Description: (§7) Bacteria were cultured at 37°C and 200 rpm to the logarithmic phase (1 × 10^6 CFU). The corresponding drugs, with a final concentration of tenfold the MIC of MG1655, were added. At 15, 30, 60, 90, and 120 min, 50 µL of the mixture was serially diluted 10-fold and dropped on an LB agar plate for CFU counting.

original MG1655 = conditions: tenfold the MIC of MG1655, 15-120 min, CFU counting
Description: as §7

[5] = system: trimethoprim-resistant strains (TMP30); assay: Disk diffusion experiment, trimethoprim-resistant strains; format: cell-based, Escherichia coli; conditions: drug 2,048 µg/mL, LB agar, 37°C 24 h
Description: as §1

[6] = system: mice infected with MG1655; conditions: 5.0 × 10^8 CFU i.p.; trimethoprim 60 mg/kg i.p. 1 h after infection; organs at 48 h; n = 6
Description: Female BALB/c mice aged 6 to 8 weeks were randomly divided into four groups with six replicates for each group. Of bacterial suspension, 5.0 × 10^8 CFU was intraperitoneally injected to mice for 1 h, followed by a second intraperitoneal injection of trimethoprim (60 mg/kg) or pexiganan (10 mg/kg) or a combination of trimethoprim and pexiganan (30 + 5 mg/kg). The PBS injection group was used as a control. After 48 h, the liver, spleen, and kidneys of the mice were aseptically removed for CFU measurement.

[7] = MG1655, 12 h, read-out: MIC of MG1655 under the pressure of the same drug, generation 10
[8] = MG1655, read-out: MIC of MG1655 under the pressure of the same drug, generation primary
[9] = MG1655, as E2, generation 20, read-out: MIC of MG1655 under the pressure of the same drug, generation 20
[10] = MG1655, as E2, generation 30, read-out: MIC of MG1655 under the pressure of the same drug, generation 30

| SMILES | MIC (E. coli K-12 MG1655; [7]) [µg/mL] | MIC (E. coli K-12 MG1655; [8]) [µg/mL] | MIC (E. coli K-12 MG1655; [9]) [µg/mL] | MIC (E. coli K-12 MG1655; [10]) [µg/mL] | MIC (AMP120 (evolved MG1655)) [µg/mL] | MIC (AZI120 (evolved MG1655)) [µg/mL] | MIC (CHL80 (evolved MG1655)) [µg/mL] | MIC (CIP120 (evolved MG1655)) [µg/mL] | MIC (COL120 (evolved MG1655)) [µg/mL] | MIC (DOX120 (evolved MG1655)) [µg/mL] | MIC (KAN80 (evolved MG1655)) [µg/mL] | MIC (NIT70 (evolved MG1655)) [µg/mL] | MIC (TMP30 (evolved MG1655)) [µg/mL] | MIC (MG1655 WT) [µg/mL] | MIC (MG1655 dnaA-i) [µg/mL] | MIC (MG1655 deoB-i) [µg/mL] | MIC (MG1655 icd-i) [µg/mL] | MIC (MG1655 thyA-i) [µg/mL] | other results |
| --- | --- | --- | --- | --- | --- | --- | --- | --- | --- | --- | --- | --- | --- | --- | --- | --- | --- | --- | --- |
| CC[C@H](C)[C@H](NC(=O)[C@H](CCCNC(=N)N)NC(=O)[C@H](CS)NC(=O)[C@H](CC(C)C)NC(=O)[C@H](CCCCN)NC(=O)[C@H](CCCCN)NC(=O)[C@H](CC(C)C)NC(=O)[C@@H](NC(=O)[C@H](CCCNC(=N)N)NC(=O)[C@H](CS)NC(=O)[C@H](CC(C)C)NC(=O)[C@H](CCCCN)NC(=O)[C@H](CCCCN)NC(=O)[C@@H](N)CC(C)C)[C@@H](C)CC)C(=O)O [LI, LI14] (H-LKKLCRILKKLCRI-OH; N-terminus and C-terminus assumed) | – | – | – | – | – | – | – | – | – | – | – | – | – | – | – | – | – | – | inhibition halo on chloramphenicol-resistant strains (in words) [1]: noticeable inhibitory effect; survival rate of larvae infected with chloramphenicol-resistant strains [2]: 62.5%; survival of larvae infected by the original MG1655 [3]: all larvae infected by the original MG1655 died |
| O=C1CN(/N=C/c2ccc([N+](=O)[O-])o2)C(=O)N1 [NIT, Nitrofurantoin] | 16 | 16 | 16 | 64 | 16 (≈ 67.2 µM) | 16 (≈ 67.2 µM) | 4 (≈ 16.8 µM) | 16 (≈ 67.2 µM) | 8 (≈ 33.6 µM) | 16 (≈ 67.2 µM) | 8 (≈ 33.6 µM) | 512 (≈ 2150 µM) | 4 (≈ 16.8 µM) | 16 (≈ 67.2 µM) | 16 (≈ 67.2 µM) | 16 (≈ 67.2 µM) | 16 (≈ 67.2 µM) | 8 (≈ 33.6 µM) | MIC (E. coli K-12 MG1655; MG1655, as E2, generation 40, read-out: MIC of MG1655 under the pressure of the same drug, generation 40): 64 µg/mL; MIC (E. coli K-12 MG1655; MG1655, as E2, generation 50, read-out: MIC of MG1655 under the pressure of the same drug, generation 50): 128 µg/mL; MIC (E. coli K-12 MG1655; MG1655, as E2, generation 60, read-out: MIC of MG1655 under the pressure of the same drug, generation 60): 256 µg/mL; MIC (E. coli K-12 MG1655; MG1655, as E2, generation 70, read-out: MIC of MG1655 under the pressure of the same drug, generation 70): 512 µg/mL; collateral sensitivity of TMP30 (fold change of MIC vs wild-type MG1655) (TMP30 (evolved MG1655); MIC of TMP30 compared with MG1655): exceeding fourfold; killing of chloramphenicol-resistant bacteria (CFU) [4]: completely eradicated; CFU reduction of original MG1655 (original MG1655): decreased by less than one-log; inhibition halo on trimethoprim-resistant strains (in words) [5]: significant inhibitory effect |
| COc1cc(Cc2cnc(N)nc2N)cc(OC)c1OC [TMP, Trimethoprim] | 128 | 64 | 128 | 512 | 128 (≈ 441 µM) | 64 (≈ 220 µM) | 128 (≈ 441 µM) | 128 (≈ 441 µM) | 128 (≈ 441 µM) | 128 (≈ 441 µM) | 128 (≈ 441 µM) | 128 (≈ 441 µM) | 512 (≈ 1760 µM) | 64 (≈ 220 µM) | 64 (≈ 220 µM) | 128 (≈ 441 µM) | 128 (≈ 441 µM) | 256 (≈ 882 µM) | increase in MIC in thyA-i strains vs original MG1655 (MG1655 thyA-i; CRISPRi thyA repression): four-fold increase in MIC; bacterial loads in the liver, spleen, and kidneys of mice infected with MG1655 [6]: decreased significantly |
